Source: ChEMBL document CHEMBL1126341, “Synthesis of stereoisomers of 1,4:3,6-dianhydrohexitol nitrate derivative, KF-14124” (1992)

Columns and labels:
Type in all cases: functional
Rattus norvegicus [1] = test: Compound was tested for inhibition of T-wave elevation in lysine-Vasopressin -Induced-Angina Pectoris model in rats when administered perorally; details: po, read-out: MED
Rattus norvegicus [2] = test: Compound was tested for inhibition of T-wave elevation in lysine-Vasopressin -Induced-Angina Pectoris model in rats when administered intraperitoneally.; details: for minimal effective dose: Rattus norvegicus, ip, read-out: MED
Canis familiaris [3] = organism: Canis familiaris; test: Minimum effective dose in […] induced heart failure in left ventricular end diastolic pressure model of dog; details: Canis lupus familiaris, Heart left ventricle; read-out: MED
Canis familiaris [4] = organism: Canis familiaris; test: Minimum effective dose in propanol induced heart failure in left ventricular end diastolic pressure model of dog when dose given intradermally; details: Canis lupus familiaris, Heart left ventricle; read-out: MED

SMILES | minimal effective dose (Rattus norvegicus [1]) [mg/kg] | minimal effective dose (Rattus norvegicus [2]) [mg/kg] | further results
O=[N+]([O-])O[C@@H]1CO[C@H]2[C@@H]1OC[C@@H]2N1CCN(CCCSc2ccccc2)CC1 | > 30 | > 25 | –
O=[N+]([O-])O[C@H]1CO[C@H]2[C@@H]1OC[C@H]2O[N+](=O)[O-] [ISOSORBIDE DINITRATE] | – | – | minimal effective dose (Canis familiaris [3]): > 0.3 mg/kg
O=[N+]([O-])O[C@H]1CO[C@@H]2C(N3CCN(CCCSc4ccccc4)CC3)CO[C@H]12 (single isomer, unassigned) | 10 | 12.5 | minimal effective dose (Canis familiaris [4]): 0.1 mg/kg
O=[N+]([O-])O[C@@H]1CO[C@H]2[C@@H]1OC[C@H]2N1CCN(CCCSc2ccccc2)CC1 | – | > 25 | –
O=[N+]([O-])O[C@H]1CO[C@H]2[C@@H]1OC[C@H]2N1CCN(CCCSc2ccccc2)CC1 | – | – | MED (Rattus norvegicus [2]): >25 mg/kg
